According to the supplement of paper PMC11061612:

What was measured:
Capivasertib = compound: C1CN(CCC1(C(=O)N[C@@H](CCO)C2=CC=C(C=C2)Cl)N)C3=NC=NC4=C3C=CN4 [Capivasertib]; settings: max 10 µM
How it was run: (§1)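 In 1536-well plates, cancer cell lines in 7.5 μl DMEM/F12 or RPMI with 10% FBS spent 24 hours at 37°C and 5% CO2 and were then dosed for 72 hours with final DMSO typically 0.2%. Viability was read by CellTiter-Glo 2.0 luminescence and scaled between blank-well and DMSO-well means. The single-agent IC50 was fitted from dose responses using a logistic curve in a non-linear mixed effects model, and that logistic curve had two parameters.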

AZD1775 = compound: C=CCn1c(=O)c2cnc(Nc3ccc(N4CCN(C)CC4)cc3)nc2n1-c1cccc(C(C)(C)O)n1 [AZD1775]; settings: max 3 µM
How it was run: as §1

Trametinib = compound: CC(=O)Nc1cccc(-n2c(=O)n(C3CC3)c(=O)c3c(Nc4ccc(I)cc4F)n(C)c(=O)c(C)c32)c1 [Trametinib]; settings: max 1 µM
How it was run: as §1

Palbociclib = compound: CC(=O)c1c(C)c2cnc(Nc3ccc(N4CCNCC4)cn3)nc2n(C2CCCC2)c1=O [Palbociclib]; settings: max 10 µM
How it was run: as §1

AZD1390 = compound: CC(C)n1c(=O)n(C)c2cnc3cc(F)c(-c4ccc(OCCCN5CCCCC5)nc4)cc3c21 [AZD1390]; settings: max 0.3 µM
How it was run: as §1

Venetoclax = compound: CC1(C)CCC(CN2CCN(c3ccc(C(=O)NS(=O)(=O)c4ccc(NCC5CCOCC5)c([N+](=O)[O-])c4)c(Oc4cnc5[nH]ccc5c4)c3)CC2)=C(c2ccc(Cl)cc2)C1 [Venetoclax]; settings: max 1 µM
How it was run: as §1

Dasatinib = compound: CC1=C(C(=CC=C1)Cl)NC(=O)C2=CN=C(S2)NC3=CC(=NC(=N3)C)N4CCN(CC4)CCO [Dasatinib]; settings: max 2 µM
How it was run: as §1

SG3199 = compound: CC1=CN2[C@@H](C1)C=NC3=CC(=C(C=C3C2=O)OC)OCCCCCOC4=C(C=C5C(=C4)N=C[C@@H]6CC(=CN6C5=O)C)OC [SG3199]; settings: max 0.001 µM
How it was run: as §1

AZD2811 = compound: CCN(CCO)CCCOc1ccc2c(Nc3cc(CC(=O)Nc4cccc(F)c4)[nH]n3)ncnc2c1 [AZD2811]; settings: max 1 µM
How it was run: as §1

SN-38 = compound: CCc1c2c(nc3ccc(O)cc13)-c1cc3c(c(=O)n1C2)COC(=O)[C@]3(O)CC [SN-38]; settings: max 0.3 µM
How it was run: as §1

AZD0156 = compound: CN(C)CCCOc1ccc(-c2ccc3ncc4c(c3c2)n(C2CCOCC2)c(=O)n4C)cn1 [AZD0156]; settings: max 3 µM
How it was run: as §1

AZD4320 = compound: CN(CC[C@H](CSC1=CC=CC=C1)NC2=C(C=C(C=C2)S(=O)(=O)NC(=O)C3=CC=C(C=C3)N4CCC(CC4)[C@H](C5=CC=CC=C5C6=CC=C(C=C6)Cl)O)S(=O)(=O)C(F)(F)F)CCO [AZD4320]; settings: max 1 µM
How it was run: as §1

Alisertib = compound: COc1cc(Nc2ncc3c(n2)-c2ccc(Cl)cc2C(c2c(F)cccc2OC)=NC3)ccc1C(=O)O [Alisertib]; settings: max 10 µM
How it was run: as §1

Gefitinib = compound: COc1cc2ncnc(Nc3ccc(F)c(Cl)c3)c2cc1OCCCN1CCOCC1 [Gefitinib]; settings: max 10 µM
How it was run: as §1

Prexasertib = compound: COc1cccc(OCCCN)c1-c1cc(Nc2cnc(C#N)cn2)n[nH]1 [Prexasertib]; settings: max 1 µM
How it was run: as §1

Doxorubicin = compound: COc1cccc2c1C(=O)c1c(O)c3c(c(O)c1C2=O)C[C@@](O)(C(=O)CO)C[C@@H]3O[C@H]1C[C@H](N)[C@H](O)[C@H](C)O1 [Doxorubicin]; settings: max 1 µM
How it was run: as §1

AZD5153 = compound: COc1nnc2ccc(N3CCC(c4ccc(OCCN5CCN(C)C(=O)[C@H]5C)cc4)CC3)nn12 [AZD5153]; settings: max 1 µM
How it was run: as §1

Lapatinib = compound: CS(=O)(=O)CCNCc1ccc(-c2ccc3ncnc(Nc4ccc(OCc5cccc(F)c5)c(Cl)c4)c3c2)o1 [Lapatinib]; settings: max 10 µM
How it was run: as §1

AZD8186 = compound: C[C@@H](Nc1cc(F)cc(F)c1)c1cc(C(=O)N(C)C)cc2c(=O)cc(N3CCOCC3)oc12 [AZD8186]; settings: max 3 µM
How it was run: as §1

Crizotinib = compound: C[C@@H](Oc1cc(-c2cnn(C3CCNCC3)c2)cnc1N)c1c(Cl)ccc(F)c1Cl [Crizotinib]; settings: max 10 µM
How it was run: as §1

Savolitinib = compound: C[C@@H](c1ccc2nccn2c1)n1nnc2ncc(-c3cnn(C)c3)nc21 [Savolitinib]; settings: max 1 µM
How it was run: as §1

AZD6738 = compound: C[C@@H]1COCCN1C2=NC(=NC(=C2)C3(CC3)[S@](=N)(=O)C)C4=C5C=CNC5=NC=C4 [AZD6738]; settings: max 10 µM
How it was run: as §1

AZD5991 = compound: Cc1c2c(nn1C)CSCc1cc(n(C)n1)CSc1cc(c3ccccc3c1)OCCCc1c(C(=O)O)n(C)c3c-2c(Cl)ccc13 [AZD5991]; settings: max 1 µM
How it was run: as §1

AZD7648 = compound: Cc1cc2ncnn2cc1Nc1ncc2c(n1)n(C1CCOCC1)c(=O)n2C [AZD7648]; settings: max 10 µM
How it was run: as §1

Taselisib = compound: Cc1nc(-c2cn3c(n2)-c2ccc(-c4cnn(C(C)(C)C(N)=O)c4)cc2OCC3)n(C(C)C)n1 [Taselisib]; settings: max 10 µM
How it was run: as §1

Selumetinib = compound: Cn1cnc2c(F)c(Nc3ccc(Br)cc3Cl)c(C(=O)NOCCO)cc21 [Selumetinib]; settings: max 10 µM
How it was run: as §1

MK-2206 = compound: NC1(c2ccc(-c3nc4ccn5c(=O)[nH]nc5c4cc3-c3ccccc3)cc2)CCC1 [MK-2206]; settings: max 10 µM
How it was run: as §1

Olaparib = compound: O=C(c1cc(Cc2n[nH]c(=O)c3ccccc23)ccc1F)N1CCN(C(=O)C2CC2)CC1 [Olaparib]; settings: max 10 µM
How it was run: as §1

Cell Line | IC50, cell viability 72 h (Capivasertib) [nM] | IC50, cell viability 72 h (AZD1775) [nM] | IC50, cell viability 72 h (Trametinib) [nM] | IC50, cell viability 72 h (Palbociclib) [nM] | IC50, cell viability 72 h (AZD1390) [nM] | IC50, cell viability 72 h (Venetoclax) [nM] | IC50, cell viability 72 h (Dasatinib) [nM] | IC50, cell viability 72 h (SG3199) [nM] | IC50, cell viability 72 h (AZD2811) [nM] | IC50, cell viability 72 h (SN-38) [nM] | IC50, cell viability 72 h (AZD0156) [nM] | IC50, cell viability 72 h (AZD4320) [nM] | IC50, cell viability 72 h (Alisertib) [nM] | IC50, cell viability 72 h (Gefitinib) [nM] | IC50, cell viability 72 h (Prexasertib) [nM] | IC50, cell viability 72 h (Doxorubicin) [nM] | IC50, cell viability 72 h (AZD5153) [nM] | IC50, cell viability 72 h (Lapatinib) [nM] | IC50, cell viability 72 h (AZD8186) [nM] | IC50, cell viability 72 h (Crizotinib) [nM] | IC50, cell viability 72 h (Savolitinib) [nM] | IC50, cell viability 72 h (AZD6738) [nM] | IC50, cell viability 72 h (AZD5991) [nM] | IC50, cell viability 72 h (AZD7648) [nM] | IC50, cell viability 72 h (Taselisib) [nM] | IC50, cell viability 72 h (Selumetinib) [nM] | IC50, cell viability 72 h (MK-2206) [nM] | IC50, cell viability 72 h (Olaparib) [nM]
HCC1500 (Breast Carcinoma) | > 10000 | 2900 | > 1000 | > 10000 | > 300 | 291 | > 2000 | > 1 | > 1000 | 213 | > 3000 | 45.2 | > 10000 | > 10000 | > 1000 | > 1000 | > 1000 | > 10000 | > 3000 | > 10000 | > 1000 | > 10000 | > 1000 | > 10000 | > 10000 | > 10000 | > 10000 | > 10000
HCC2998 (Colorectal Carcinoma) | > 10000 | 981 | 14.1 | > 10000 | > 300 | > 1000 | > 2000 | > 1 | > 1000 | 144 | > 3000 | 485 | > 10000 | > 10000 | 18.8 | 389 | 314 | > 10000 | > 3000 | > 10000 | > 1000 | 3120 | 259 | > 10000 | 5390 | 382 | – | > 10000
EW-1 (Ewing's Sarcoma) | > 10000 | 294 | > 1000 | 5210 | > 300 | > 1000 | > 2000 | > 1 | > 1000 | 4.54 | > 3000 | 586 | 4900 | > 10000 | 10.9 | 317 | 357 | > 10000 | > 3000 | 2040 | > 1000 | 2480 | > 1000 | > 10000 | 640 | > 10000 | – | 6670
ALL-SIL (T-Lymphoblastic Leukemia) | > 10000 | 449 | > 1000 | > 10000 | > 300 | 257 | < 2 | > 1 | 4.94 | 1.52 | > 3000 | 9.78 | 44.7 | > 10000 | 5.65 | 146 | 237 | > 10000 | > 3000 | 244 | > 1000 | 1430 | 141 | > 10000 | 6050 | > 10000 | – | > 10000
NCI-H650 (Lung Adenocarcinoma) | > 10000 | 2650 | > 1000 | > 10000 | > 300 | > 1000 | > 2000 | > 1 | > 1000 | 100 | > 3000 | > 1000 | > 10000 | > 10000 | 283 | > 1000 | > 1000 | > 10000 | > 3000 | > 10000 | > 1000 | > 10000 | > 1000 | > 10000 | > 10000 | > 10000 | > 10000 | > 10000
HCC1937 (Breast Carcinoma) | > 10000 | 643 | > 1000 | > 10000 | > 300 | > 1000 | > 2000 | > 1 | > 1000 | > 300 | > 3000 | > 1000 | > 10000 | > 10000 | 318 | > 1000 | > 1000 | > 10000 | > 3000 | > 10000 | > 1000 | > 10000 | > 1000 | > 10000 | 9150 | > 10000 | > 10000 | > 10000
KOPN-8 (B-Lymphoblastic Leukemia) | 4980 | 314 | 36.9 | 2620 | > 300 | 50 | > 2000 | > 1 | 37.7 | 2.7 | > 3000 | 11 | 23.4 | > 10000 | 19.8 | 106 | 28.5 | > 10000 | > 3000 | 2770 | > 1000 | 725 | 43.4 | > 10000 | > 10000 | 6210 | 8590 | 6850
NCI-H1838 (Lung Adenocarcinoma) | > 10000 | 2440 | > 1000 | > 10000 | > 300 | > 1000 | > 2000 | > 1 | > 1000 | > 300 | > 3000 | > 1000 | > 10000 | > 10000 | 212 | > 1000 | > 1000 | > 10000 | > 3000 | > 10000 | > 1000 | > 10000 | > 1000 | > 10000 | 5860 | > 10000 | > 10000 | > 10000
Hey (Ovarian Carcinoma) | > 10000 | 1200 | 59.8 | > 10000 | > 300 | > 1000 | 450 | > 1 | > 1000 | 32 | > 3000 | > 1000 | 1240 | > 10000 | 128 | 398 | 476 | > 10000 | > 3000 | > 10000 | > 1000 | 6180 | > 1000 | > 10000 | 7990 | 3040 | – | > 10000
NCI-H1092 (Small Cell Lung Carcinoma) | > 10000 | 2940 | > 1000 | > 10000 | > 300 | > 1000 | > 2000 | > 1 | > 1000 | > 300 | > 3000 | 152 | > 10000 | > 10000 | 144 | > 1000 | > 1000 | > 10000 | > 3000 | > 10000 | > 1000 | > 10000 | 819 | > 10000 | > 10000 | > 10000 | > 10000 | > 10000
NCI-H2122 (Lung Adenocarcinoma) | 4950 | 547 | 13.8 | 1910 | > 300 | > 1000 | > 2000 | > 1 | 347 | 40.5 | > 3000 | > 1000 | 65 | 5670 | 29.1 | > 1000 | 115 | 6230 | > 3000 | 1920 | > 1000 | 1140 | > 1000 | > 10000 | 373 | 496 | – | > 10000
